Measured values published in patent US20250009819A1, “NOVEL PROBIOTICS AND USE THEREOF” (PBLBIOLAB CO., LTD., priority 2021, published 2025).

Assays:
Clostridium difficile = Clostridium difficile proliferation in gut microbiota (PCR); format: cell-based; details: human feces culture; lactic acid bacteria 1×10^6 CFU/mL; anaerobic 24 hr
Protocol: Fresh human feces were suspended in anaerobic medium (GAM, Nissui Pharmaceutical Co., Ltd., Japan) and allowed to stand for 10 min. The supernatant was diluted with 10,000-fold anaerobic medium, 0.05 mL of the dilution was transplanted into 5 mL of freshly made anaerobic medium, and lactic acid bacteria (1×10^6 CFU/mL) were implanted and incubated anaerobically for 24 hr. This culture medium was divided into two, one was centrifuged (5000 rpm, 20 minutes), the precipitated DNA was isolated using the QIAamp DNA stool mini kit (Qiagen, Germany), and Clostridium difficile (primer: forward, 5′-[…]-3′ (SEQ ID NO: 4); reverse, 5′-[…]-3′ (SEQ ID NO: 5) was quantified by PCR. The reaction product was first treated at 95° C. for 30 seconds, followed by 42 cycles of 5 seconds at 95° C. and 30 seconds at 72° C. for analysis. In addition, one culture medium was sonicated, centrifuged, and filter-sterilized, and the amount of LPS in the supernatant was measured using an ELISA kit.

[1] = Antioxidant activity (DPPH, in vitro); format: biochemical; details: DPPH 0.2 mM; lactic acid bacteria suspension 1×10^8 CFU/ml; 37° C. 20 min
Protocol: DPPH (2,2-Diphenyl-1-picrylhydrazyl) was dissolved in ethanol to a concentration of 0.2 mM to prepare DPPH solution. Lactic acid bacteria suspension (1×10^8 CFU/ml) or vitamin C solution (1 g/ml) was added to 0.1 ml of the above DPPH solution and incubated at 37° C. for 20 min. The culture was centrifuged at 3000 rpm for 5 min to obtain a supernatant. The absorbance of the supernatant was then measured at 517 nm and the antioxidant activity of the lactic acid bacteria was calculated.

IL-10 = IL-10 expression in LPS-treated macrophages (ELISA); format: cell-based, C57BL/6 mice; details: macrophages treated with lactic acid bacteria and LPS for 24 hours
Protocol: (§1) C57BL/6 mice (male, 6 weeks old, 20-23 g) were subjected to an intraperitoneal injection of 2 ml of sterile 4% thioglycolate solution, and after 96 hours, the mice were anesthetized and injected with 8 ml of RPMI 1640 medium through the peritoneal cavity. Then, after 5-10 minutes, the RPMI medium (macrophages) in the mouse peritoneal cavity was extracted, centrifuged at 1000 g for 10 minutes, and washed again with RPMI 1640 medium twice. Macrophages were seeded in 24-well plates at a count of 0.5×10^6 in each well, and treated with lactic acid bacteria and LPS, an inflammatory response-inducing substance, for 24 hours. TNF-α and IL-10 cytokine expression amount in the culture supernatant was then measured by ELISA Kit.

TNF-α = TNF-α expression in LPS-treated macrophages (ELISA); format: cell-based, C57BL/6 mice; details: macrophages treated with lactic acid bacteria and LPS for 24 hours
Protocol: as §1

gut microbiota = assay: LPS production in gut microbiota (ELISA); format: cell-based; details: human feces culture; lactic acid bacteria 1×10^6 CFU/mL; anaerobic 24 hr
Protocol: Fresh human feces were suspended in anaerobic medium (GAM, Nissui Pharmaceutical Co., Ltd., Japan) and allowed to stand for 10 min. The supernatant was diluted with 10,000-fold anaerobic medium, 0.05 mL of the dilution was transplanted into 5 mL of freshly made anaerobic medium, and lactic acid bacteria (1×10^6 CFU/mL) were implanted and incubated anaerobically for 24 hr.

Neuropeptide Y (NPY) = Neuropeptide Y (NPY) expression in PC12 phaeochromocytoma cells; format: cell-based; details: LPS 200 ng/ml; lactic acid bacteria 1×10^4 CFU/ml; 24 hr
Protocol: (§2) PC12 cells obtained from the Korean Cell Line Bank were cultured in DMEM medium supplemented with 10% FBS and 1% antibiotics, and dispensed at 1×10^6 cells per well in a 12-well plate. Then, LPS (200 ng/ml) was added to each well along with lactic acid bacteria (1×10^4 CFU/ml) and incubated for 24 hr. The cells and supernatants were collected, sonicated and centrifuged, and the amount of NPY in the supernatant was measured by ELISA kit.

BDNF = BDNF expression in SH-SY5Y cells; format: cell-based; details: LPS 200 ng/ml; lactic acid bacteria 1×10^4 CFU/ml; 24 h
Protocol: as §2, with “SH-SY5Y” for “PC12”, “2×10^6” for “1×10^6”, “h.” for “hr.”, “BDNF” for “NPY”

Row | Substance | Gut microbiota Inhibition of difficile bacteria proliferation (Clostridium difficile) | Antioxidant activity [1] | Macrophage Induction of IL-10 expression (IL-10) | Macrophage Inhibition of TNF-α expression (TNF-α) | Gut microbiota Inhibition of LPS production (gut microbiota) | PC12 cell Induction of NPY expression (Neuropeptide Y (NPY)) | SHSY5Y cell Induction of BDNF expression (BDNF)
1 | Bifidobacterium infantis NK214 | + (weakly (+; >20-60%)) | ++ (strongly (++; >60-90%)) | − (not or less than 20% (−; <20%)) | − (not or less than 20% (−; <20%)) | + (weakly (+; >20-60%)) | + (weakly (+; >20-60%)) | − (not or less than 20% (−; <20%))
2 | Bifidobacterium longum NK218 | + (weakly (+; >20-60%)) | + (weakly (+; >20-60%)) | − (not or less than 20% (−; <20%)) | − (not or less than 20% (−; <20%)) | + (weakly (+; >20-60%)) | + (weakly (+; >20-60%)) | + (weakly (+; >20-60%))
3 | Lactobacillus johnsonii NK203 | − (not or less than 20% (−; <20%)) | + (weakly (+; >20-60%)) | + (weakly (+; >20-60%)) | + (weakly (+; >20-60%)) | − (not or less than 20% (−; <20%)) | − (not or less than 20% (−; <20%)) | − (not or less than 20% (−; <20%))
4 | Lactobacillus mucosae NK205 | − (not or less than 20% (−; <20%)) | + (weakly (+; >20-60%)) | − (not or less than 20% (−; <20%)) | − (not or less than 20% (−; <20%)) | − (not or less than 20% (−; <20%)) | + (weakly (+; >20-60%)) | − (not or less than 20% (−; <20%))
5 | Lactobacillus plantarum NK182 | ++ (strongly (++; >60-90%)) | ++ (strongly (++; >60-90%)) | − (not or less than 20% (−; <20%)) | − (not or less than 20% (−; <20%)) | − (not or less than 20% (−; <20%)) | − (not or less than 20% (−; <20%)) | − (not or less than 20% (−; <20%))
6 | Lactobacillus johnsonii NK202 | + (weakly (+; >20-60%)) | + (weakly (+; >20-60%)) | + (weakly (+; >20-60%)) | + (weakly (+; >20-60%)) | + (weakly (+; >20-60%)) | + (weakly (+; >20-60%)) | + (weakly (+; >20-60%))
7 | Lactobacillus gasseri NK185 | + (weakly (+; >20-60%)) | ++ (strongly (++; >60-90%)) | + (weakly (+; >20-60%)) | + (weakly (+; >20-60%)) | − (not or less than 20% (−; <20%)) | + (weakly (+; >20-60%)) | − (not or less than 20% (−; <20%))
8 | Bifidobacterium bifidum NK224 | + (weakly (+; >20-60%)) | + (weakly (+; >20-60%)) | − (not or less than 20% (−; <20%)) | − (not or less than 20% (−; <20%)) | + (weakly (+; >20-60%)) | + (weakly (+; >20-60%)) | − (not or less than 20% (−; <20%))
9 | Bifidobacterium longum NK216 | − (not or less than 20% (−; <20%)) | ++ (strongly (++; >60-90%)) | − (not or less than 20% (−; <20%)) | − (not or less than 20% (−; <20%)) | ++ (strongly (++; >60-90%)) | + (weakly (+; >20-60%)) | − (not or less than 20% (−; <20%))
10 | Bifidobacterium adolescentis NK222 | + (weakly (+; >20-60%)) | + (weakly (+; >20-60%)) | + (weakly (+; >20-60%)) | + (weakly (+; >20-60%)) | + (weakly (+; >20-60%)) | + (weakly (+; >20-60%)) | − (not or less than 20% (−; <20%))
11 | Lactobacillus casei NK194 | + (weakly (+; >20-60%)) | ++ (strongly (++; >60-90%)) | + (weakly (+; >20-60%)) | − (not or less than 20% (−; <20%)) | + (weakly (+; >20-60%)) | + (weakly (+; >20-60%)) | + (weakly (+; >20-60%))
12 | Lactobacillus mucosae NK204 | + (weakly (+; >20-60%)) | + (weakly (+; >20-60%)) | − (not or less than 20% (−; <20%)) | − (not or less than 20% (−; <20%)) | − (not or less than 20% (−; <20%)) | − (not or less than 20% (−; <20%)) | − (not or less than 20% (−; <20%))
13 | Lactococcus lactis NK208 | + (weakly (+; >20-60%)) | − (not or less than 20% (−; <20%)) | − (not or less than 20% (−; <20%)) | − (not or less than 20% (−; <20%)) | + (weakly (+; >20-60%)) | + (weakly (+; >20-60%)) | + (weakly (+; >20-60%))
14 | Lactobacillus sakei NK198 | − (not or less than 20% (−; <20%)) | ++ (strongly (++; >60-90%)) | − (not or less than 20% (−; <20%)) | − (not or less than 20% (−; <20%)) | ++ (strongly (++; >60-90%)) | + (weakly (+; >20-60%)) | − (not or less than 20% (−; <20%))
15 | Lactobacillus sakei NK197 | + (weakly (+; >20-60%)) | ++ (strongly (++; >60-90%)) | + (weakly (+; >20-60%)) | + (weakly (+; >20-60%)) | + (weakly (+; >20-60%)) | + (weakly (+; >20-60%)) | − (not or less than 20% (−; <20%))
